Measured values as given in US20260137698A1, “CYCLIN-DEPENDENT KINASE 7 INHIBITORS” (JOINT STOCK COMPANY «BIOCAD», priority 2022, published 2026).
Like-named read-outs stand apart in the source and are kept apart here.

Tests used:
CDK7/Cyclin H/MNAT1 = CDK7/Cyclin H/MNAT1 (Homo sapiens, UniProt P50613); experiment: Inhibition of CDK7/Cyclin H/MNAT1 kinase activity (ADP-Glo); assay type: biochemical
Method in brief: (§1)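 ADP-Glo luminescence quantified ATP consumption after a 40-60 minute, 25° C. reaction with ATP plus CDKtide, Histone H1 or PDKtide, following a 10-minute compound–kinase preincubation in DTT-supplemented kinase buffer A. Compounds spanned 11 concentrations from 50 μM in 4-fold dilutions; IC50 fitted to a four-parameter model.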

CDK2/Cyclin A = CDK2/Cyclin A (Homo sapiens, UniProt P24941); experiment: Inhibition of CDK2/Cyclin A kinase activity (ADP-Glo); assay type: biochemical
Method in brief: as §1

CDK9/Cyclin K = CDK9/Cyclin K (Homo sapiens, UniProt P50750); experiment: Inhibition of CDK9/Cyclin K kinase activity (ADP-Glo); assay type: biochemical
Sequence of CDK9/Cyclin K (P50750 whole entry): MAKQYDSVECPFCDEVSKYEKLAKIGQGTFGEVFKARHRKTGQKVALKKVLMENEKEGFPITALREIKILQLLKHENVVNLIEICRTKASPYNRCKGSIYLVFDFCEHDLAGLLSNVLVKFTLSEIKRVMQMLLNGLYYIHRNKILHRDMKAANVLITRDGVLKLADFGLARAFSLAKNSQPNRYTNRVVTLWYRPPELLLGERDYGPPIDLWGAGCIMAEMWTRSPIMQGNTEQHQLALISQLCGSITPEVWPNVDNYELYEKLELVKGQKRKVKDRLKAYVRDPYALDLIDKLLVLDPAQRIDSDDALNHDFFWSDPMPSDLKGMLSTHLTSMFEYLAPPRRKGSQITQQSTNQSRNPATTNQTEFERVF
Sequence of CDK9/Cyclin K (O75909 whole entry partner): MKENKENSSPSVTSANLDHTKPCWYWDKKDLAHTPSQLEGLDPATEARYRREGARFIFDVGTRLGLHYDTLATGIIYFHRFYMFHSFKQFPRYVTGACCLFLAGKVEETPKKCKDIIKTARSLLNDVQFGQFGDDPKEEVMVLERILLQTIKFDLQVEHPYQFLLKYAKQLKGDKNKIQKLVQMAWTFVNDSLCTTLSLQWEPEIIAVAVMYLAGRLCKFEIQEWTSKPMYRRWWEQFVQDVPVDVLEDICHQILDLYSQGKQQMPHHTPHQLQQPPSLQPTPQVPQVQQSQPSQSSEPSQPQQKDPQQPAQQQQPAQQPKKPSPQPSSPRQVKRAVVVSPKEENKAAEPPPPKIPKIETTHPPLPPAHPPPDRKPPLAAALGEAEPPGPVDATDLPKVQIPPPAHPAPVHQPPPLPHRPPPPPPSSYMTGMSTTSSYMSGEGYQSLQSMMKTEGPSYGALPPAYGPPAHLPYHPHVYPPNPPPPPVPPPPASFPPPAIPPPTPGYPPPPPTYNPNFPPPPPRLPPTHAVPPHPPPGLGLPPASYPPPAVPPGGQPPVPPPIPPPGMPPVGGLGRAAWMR
Method in brief: as §1

[1] = tested on: MDA-MB-468 (triple negative breast cancer); experiment: Antiproliferative assay on MDA-MB-468 cells (AlamarBlue, 96 h); assay type: cell-based; conditions: Homo sapiens, mean value from several measurements
[2] = tested on: NCl-H82 (small cell lung cancer); experiment: Antiproliferative assay on NCl-H82 cells (AlamarBlue, 120 h); assay type: cell-based; conditions: mean value from several measurements
Procedure: The antiproliferative activity of CDK7 inhibitors according to the present invention was evaluated in a cell test using continuous cell cultures: MDA-MB-468 (triple negative breast cancer, ATCC® HTB-132™) and NCl-H82 (small cell lung cancer, ATCC® HTB-175™) using a viable AlamarBlue dye (Thermo Fisher Scientific Inc, order no. DAL1100). The cells were grown in DMEM (PanEco, order no. C330π) and RPMI-1640 (PanEco, order no. C330π), respectively. The basal growth medium was enriched with L-glutamine at a concentration of 2 mM (PanEco, order no. Φ032) and 10% fetal bovine serum (Gibco, order no. 16140-071). The night before measurement, MDA-MB-468 adherent cells were detached from plastic with a solution of trypsin-EDTA (PanEco, order no. Π039π), the solution was then inactivated by a DMEM complete medium, centrifuged at 1000 RPM (Eppendorf, 5804 R), a suspension of cells was prepared in a DMEM complete medium, introduced into 96-well culture plates (Corning Inc, order no. 3599) at 8×10^3 cells in 100 μl of medium per well. The next day, test compounds were dissolved in DMSO and diluted with a DMEM complete medium to a final concentration ranging from 50 μM to 10 pM. Diluted compounds in a volume of 50 μl were introduced into the plate wells with cells in triplicates (the final concentration of DMSO was no more than 1%) and incubated at 37° C. in an incubator with 5% CO2 for 96 hours. NCl-H82 suspension cell line was prepared on the day of the analysis. 10×10^3 cells in 100 μl of an RPMI-1640 complete medium were added to each well of a 96-well plate. The procedure for sample dilution is as described above. Cells with test compounds were incubated at 37° C. in an incubator with 5% CO2 for 120 hours. Following incubation, […] of AlamarBlue reagent (Thermo Fisher Scientific Inc., order no. DAL1100) was added to the wells, the contents of the plates were stirred in an orbital shaker (Biosan, Latvia), then further incubated for 5.5-6 hours at 37° C. in an incubator with 5% CO2. The number of viable cells was detected using the Infinite M200Pro microplate spectrophotometer (Tecan Group Ltd, Switzerland) by way of measuring a fluorescent signal at an excitation wavelength (λEx) of 540 nm and an emission wavelength (λEm) of 590 nm.
IC50 value was calculated using the Magellan software (Tecan Group Ltd, Switzerland) by approximating experimental points by four-parameter model with the optimization by Levenberg-Marquardt: […]

[3] = General cytotoxicity on primary differentiated HepaRG cells (72 h); assay type: cell-based; conditions: human, general toxicity, mean value from several measurements
Method in brief: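 Test compounds spanning 200 μM to 0.2 nM were incubated for 72 hours with primary differentiated HepaRG cells. Cells had been kept one week in supplemented hepatic medium and seeded the night before at 25×10^3 per well, and viability was then measured.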

[4] = Microsomal stability in human liver microsomes (HLM); assay type: in vitro ADME; conditions: 1 μM test compound
Procedure: The procedure for investigating the metabolism of selected compounds was carried out in microsomal fractions of the liver (of rats, mice, humans) in the presence of a phase I metabolism cofactor (NADPH).
The rate of enzymatic decomposition of the compound in liver microsomes in in vitro analysis was determined by keeping a reaction mixture comprising 0.5 mg/ml of pooled human, rat or mouse liver microsomes, 1 μM test compound, 1.5 mM […] (Carbosynth, UK, cat. no. NN108711101) and 1.5 mM magnesium chloride in 0.1 M sodium phosphate buffer (pH 7.4) in a solid-state thermostat at 37° C. (XenoTech, USA, order no. H2610, cat. no. R1000, cat. no. M1000). Incubation was carried out in three replicates.
To determine the stability of compounds under sample preparation conditions, an aliquot in two replicates with the test compound and a microsomal fraction devoid of the NADPH cofactor, which was incubated for 40 minutes at 37° C.
Reactions were stopped at 0, 10, 20, 30 and 40 min time points by way of adding an ice mixture of acetonitrile:methanol (3:1) comprising an internal standard.
Samples were then centrifuged to remove the precipitated protein, supernatants were analyzed using HPLC-MS/MS to determine in vitro clearance (CLint) of the compounds. The Agilent 6410 mass spectrometer (Agilent, USA) combined with the Agilent 1260 Infinity II HPLC liquid chromatograph (Agilent, USA) and a cooling autosampler controlled by MassHunter software (Agilent, USA) was used as an HPLC-MS/MS system. Chromatographic analysis was performed on a C18 reversed-phase HPLC column (Agilent, Waters or equivalent) in a gradient elution mode in a system of mobile phases: 0.1% formic acid in water/0.1% formic acid in acetonitrile, flow rate: 0.5 ml/min, column T=35° C. Mass spectrometric detection was performed with electrospray ionization in multiple reaction monitoring mode. Precursor ions, fragment ions and collision energies for each substance were selected experimentally.
A graph of dependence of the logarithmic ratio between substance's peak area and internal standard's peak area vs time was built. The dependent coefficient of this line corresponded to the elimination rate constant k, on the basis of which the in vitro clearance CLint was calculated:
Based on resulting in vitro clearance CLint values, the microsomal stability of the selected compounds for humans, rats and mice was concluded.

CDK13/Cyclin K = CDK13/Cyclin K (Homo sapiens, UniProt Q14004); experiment: Inhibition of CDK13/Cyclin K kinase activity (ADP-Glo); assay type: biochemical; conditions: mean value from several measurements; read-out: IC50 CDK13/Cyclin K
Sequence of CDK13/Cyclin K (Q14004 whole entry): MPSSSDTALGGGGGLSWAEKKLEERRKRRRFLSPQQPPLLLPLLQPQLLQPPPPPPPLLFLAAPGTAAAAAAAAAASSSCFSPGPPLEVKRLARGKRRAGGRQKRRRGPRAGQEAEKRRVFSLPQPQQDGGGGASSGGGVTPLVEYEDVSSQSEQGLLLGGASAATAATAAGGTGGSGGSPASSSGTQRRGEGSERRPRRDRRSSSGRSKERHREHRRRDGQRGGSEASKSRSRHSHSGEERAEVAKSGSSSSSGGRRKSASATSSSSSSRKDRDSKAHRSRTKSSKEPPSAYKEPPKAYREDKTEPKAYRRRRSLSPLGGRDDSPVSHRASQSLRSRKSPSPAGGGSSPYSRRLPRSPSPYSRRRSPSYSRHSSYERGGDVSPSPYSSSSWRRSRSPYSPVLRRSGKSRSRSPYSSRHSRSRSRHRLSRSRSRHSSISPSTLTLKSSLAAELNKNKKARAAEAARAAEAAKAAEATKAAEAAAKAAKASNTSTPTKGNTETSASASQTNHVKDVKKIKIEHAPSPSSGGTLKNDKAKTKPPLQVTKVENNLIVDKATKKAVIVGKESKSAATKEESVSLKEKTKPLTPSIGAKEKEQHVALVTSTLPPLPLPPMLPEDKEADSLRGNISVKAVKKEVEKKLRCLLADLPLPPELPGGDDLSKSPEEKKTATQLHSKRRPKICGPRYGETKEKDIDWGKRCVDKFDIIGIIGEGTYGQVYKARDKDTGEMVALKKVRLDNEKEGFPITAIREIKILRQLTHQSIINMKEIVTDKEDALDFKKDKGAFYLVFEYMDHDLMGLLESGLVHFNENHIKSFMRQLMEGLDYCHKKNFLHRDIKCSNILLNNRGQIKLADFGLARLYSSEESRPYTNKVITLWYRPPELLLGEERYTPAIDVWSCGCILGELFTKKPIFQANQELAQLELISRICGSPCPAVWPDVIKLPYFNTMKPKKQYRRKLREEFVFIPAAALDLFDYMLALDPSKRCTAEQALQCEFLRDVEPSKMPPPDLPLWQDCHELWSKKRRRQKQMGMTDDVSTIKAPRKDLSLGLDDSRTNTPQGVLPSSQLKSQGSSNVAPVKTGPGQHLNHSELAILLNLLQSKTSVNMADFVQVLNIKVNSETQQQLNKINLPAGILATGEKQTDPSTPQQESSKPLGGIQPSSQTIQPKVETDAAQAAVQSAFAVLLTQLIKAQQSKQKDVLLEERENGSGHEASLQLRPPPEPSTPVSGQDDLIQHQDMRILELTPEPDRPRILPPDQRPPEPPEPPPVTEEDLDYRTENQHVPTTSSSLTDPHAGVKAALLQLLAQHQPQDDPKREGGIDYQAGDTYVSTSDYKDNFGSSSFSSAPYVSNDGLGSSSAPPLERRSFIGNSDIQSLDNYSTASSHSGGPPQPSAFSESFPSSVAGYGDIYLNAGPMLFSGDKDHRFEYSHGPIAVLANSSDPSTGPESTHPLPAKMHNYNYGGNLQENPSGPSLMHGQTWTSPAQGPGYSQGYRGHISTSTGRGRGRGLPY
Sequence of CDK13/Cyclin K (O75909 whole entry partner): as the sequence (O75909 whole entry partner) above
Procedure: Measurements were carried out in a 5 μl reaction volume using a 384-well plate (Corning Inc., order no. 4513). The analyzed substances were titrated from 50 μM in increments of 4 at 11 concentration points in a normal strength kinase buffer A (Thermo Fisher Scientific Inc, cat. no. PV3189) supplemented with DTT (Sigma, orde. no. 646563-10X.5ML) and prepared with water (Panreac, order no. 701074). Kinase was diluted in an analogous buffer, mixed with test compounds in plate wells and preincubated for 10 minutes at 25° C. Following incubation, a mixture of reaction substrate (CDKtide (SignalChem, order no. C06-58) or Histone H1 (SignalChem, order no. H10-54N) or PDKtide (SignalChem, order no. P10-58) and ATP (SignalChem, order no. V915B) prepared on a normal strength kinase buffer A was added. 1% solution of dimethyl sulfoxide (DMSO) (Sigma-Aldrich, order no. D2438) in the reaction volume was used as a negative control. The final concentrations of all reaction components are shown in Table 5. The plate was centrifuged at 400 rcf (Eppendorf, 5804 R) for 1 minute and incubated for 40-60 minutes at 25° C. The amount of ATP consumed in the kinase reaction was then measured using the ADP-Glo™ detection system. Luminescence signal was measured using Spark 20M tablet multifunction reader (Tecan Group Ltd, Switzerland). IC50 value was calculated using Magellan 7.2 (Tecan Group Ltd, Switzerland) by approximating experimental points by four-parameter model with the optimization by Levenberg-Marquardt:
[formula] • where A is the upper asymptote; D is the lower asymptote; C is IC50, half-maximal inhibitory concentration of kinase, nM; B is the curvature (slope).

[5] = Passive membrane permeability through PAMPA artificial membrane, pH 7.4; assay type: in vitro ADME; conditions: pH 7.4, 10 μmol, 20 hours at room temperature, mean of multiple measurements, read-out: PAMPA passive permeability Pe
Method in brief: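 Compound at 10 μmol in 0.01 M phosphate buffer pH 7.4 placed in donor wells over lecithin-phospholipid-impregnated PVDF filter, buffer in acceptor; 20 h at room temperature. Donor and acceptor levels measured by RP-HPLC-UV; Pe (cm/s) and membrane retention R (%) calculated.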

[6] = mean of multiple measurement series, ATP 10 μM, read-out: CDK7/Cyclin H/MNAT1 IC50
[7] = mean value from several measurements, read-out: IC50 CDK7/Cyclin H/MNAT
[8] = mean of multiple measurement series, ATP 50 μM, read-out: CDK2/Cyclin A IC50
[9] = mean value from several measurements, read-out: IC50 CDK2/Cyclin A
[10] = mean of multiple measurement series, ATP 50 μM, read-out: CDK9/Cyclin K IC50
[11] = mean value from several measurements, read-out: IC50 CDK9/Cyclin K

Sequence of CDK7/Cyclin H/MNAT1 (P50613 whole entry): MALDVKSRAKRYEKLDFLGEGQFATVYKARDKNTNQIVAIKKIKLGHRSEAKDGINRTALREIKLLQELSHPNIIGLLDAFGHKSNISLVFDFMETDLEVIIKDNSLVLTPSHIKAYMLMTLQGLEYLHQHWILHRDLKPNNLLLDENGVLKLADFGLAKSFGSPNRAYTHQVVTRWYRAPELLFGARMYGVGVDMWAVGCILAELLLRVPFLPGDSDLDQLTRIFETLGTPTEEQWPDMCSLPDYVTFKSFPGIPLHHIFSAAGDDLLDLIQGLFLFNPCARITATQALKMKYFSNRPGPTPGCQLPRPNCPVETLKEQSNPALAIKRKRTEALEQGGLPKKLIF
Sequence of CDK7/Cyclin H/MNAT1 (P51946 whole entry partner): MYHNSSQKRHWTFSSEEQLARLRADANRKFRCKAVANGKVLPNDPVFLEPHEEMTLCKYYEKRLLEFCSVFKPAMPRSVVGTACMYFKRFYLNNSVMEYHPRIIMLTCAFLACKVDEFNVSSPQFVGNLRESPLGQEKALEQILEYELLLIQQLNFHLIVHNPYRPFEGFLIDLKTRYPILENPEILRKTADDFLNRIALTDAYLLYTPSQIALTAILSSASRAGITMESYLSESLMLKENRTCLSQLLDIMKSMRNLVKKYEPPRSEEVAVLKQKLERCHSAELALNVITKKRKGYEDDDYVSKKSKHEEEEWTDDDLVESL
Sequence of CDK7/Cyclin H/MNAT1 (P51948 whole entry partner): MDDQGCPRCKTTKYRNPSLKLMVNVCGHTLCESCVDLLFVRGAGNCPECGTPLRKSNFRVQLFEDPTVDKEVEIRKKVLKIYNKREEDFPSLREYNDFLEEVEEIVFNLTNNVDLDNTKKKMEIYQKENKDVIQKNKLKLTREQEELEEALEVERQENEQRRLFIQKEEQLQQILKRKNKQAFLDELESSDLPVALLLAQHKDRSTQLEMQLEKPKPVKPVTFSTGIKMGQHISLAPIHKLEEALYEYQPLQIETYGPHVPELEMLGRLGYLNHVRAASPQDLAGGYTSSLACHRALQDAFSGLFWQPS

| Structure (SMILES) | IC50 (CDK7/Cyclin H/MNAT1; [6]) [µM] | IC50 (CDK7/Cyclin H/MNAT1; [7]) [µM] | IC50 (CDK2/Cyclin A; [8]) [µM] | IC50 (CDK2/Cyclin A; [9]) [µM] | IC50 (CDK9/Cyclin K; [10]) [µM] | IC50 (CDK9/Cyclin K; [11]) [µM] | IC50 [1] [µM] | IC50 [2] [µM] | In vitro clearance CLint (HLM) [4] | IC50 (CDK13/Cyclin K) [µM] | Papp at 20 h, 10 μmol [5] [×10⁻⁶ cm/s] | CC50 at 72 h [3] [µM] |
| --- | --- | --- | --- | --- | --- | --- | --- | --- | --- | --- | --- | --- |
| CC1(C)CC[C@H](Nc2ncc(C(F)(F)F)c(-c3c[nH]c4c3CCCN(C3CCCC3)C4=O)n2)CN1 [CDK7_1154, 7-cyclopentyl-3-(2-{[(3S)-6,6-dimethylpiperidin-3-yl]amino}-5-(trifluoromethyl)py-rimidin-4-yl)-1H,4H,5H,6H,7H, 8H-pyrrolo[2,3-c]azepin-8-one] | – | < 0.005 | – | > 0.2 | – | > 0.2 | 0.01 to 0.1 | 0.01 to 0.1 | – | – | 5 to 10 | > 2 |
| CC1(C)CC[C@H](Nc2ncc(C(F)(F)F)c(-c3c[nH]c4c3CCCN(CC3CCCC3)C4=O)n2)CN1 [CDK7_1155, 7-(cyclopentylmeth-yl)-3-(2-{[(3S)-6,6-dimethylpiperidin-3-yl]amino}-5-(trifluoromethyl)py-rimidin-4-yl)-1H,4H,5H,6H,7H, 8H-pyrrolo[2,3-c]azepin-8-one] | – | 0.005 to 0.05 | – | > 0.2 | – | > 0.2 | 0.01 to 0.1 | 0.01 to 0.1 | – | – | 5 to 10 | > 2 |
| Cn1ccnc1N1CCCc2c(-c3nc(NC4CCCNC4)ncc3C(F)(F)F)c[nH]c2C1=O (stereo not shown) [CDK7_1177] | – | 0.005 to 0.05 | – | > 0.2 | – | > 0.2 | – | – | A (Clint < 20 μl/(min · mg of protein)) | – | – | > 2 |
| CC1(C)CC[C@H](Nc2ncc(C(F)(F)F)c(-c3c[nH]c4c3CCCN(C3CCC3)C4=O)n2)CN1 [CDK7_1226, 7-cyclobutyl-3-(2-{[(3S)-6,6-dimethylpiperidin-3-yl]amino}-5-(trifluoromethyl)py-rimidin-4-yl)-1H,4H,5H,6H,7H, 8H-pyrrolo[2,3-c]azepin-8-one] | 0.0056 | < 0.005 | 18.6 | > 0.2 | 0.76 | > 0.2 | 0.01 to 0.1 | 0.01 to 0.1 | – | – | 1 to 5 | > 2 |

Second part, led by results:

| IC50 (CDK7/Cyclin H/MNAT1; [6]) [µM] | IC50 (CDK7/Cyclin H/MNAT1; [7]) [µM] | IC50 (CDK2/Cyclin A; [8]) [µM] | IC50 (CDK2/Cyclin A; [9]) [µM] | IC50 (CDK9/Cyclin K; [10]) [µM] | IC50 (CDK9/Cyclin K; [11]) [µM] | IC50 [1] [µM] | IC50 [2] [µM] | In vitro clearance CLint (HLM) [4] | IC50 (CDK13/Cyclin K) [µM] | Papp at 20 h, 10 μmol [5] [×10⁻⁶ cm/s] | Structure (SMILES) | CC50 at 72 h [3] [µM] |
| --- | --- | --- | --- | --- | --- | --- | --- | --- | --- | --- | --- | --- |
| < 0.005 | < 0.005 | 7.8 | > 0.2 | 0.431 | > 0.2 | < 0.01 | 0.01 to 0.1 | A (Clint < 20 μl/(min · mg of protein)) | – | – | Cc1noc(C)c1-n1ccc2c(-c3nc(N[C@H]4CCCNC4)ncc3C(F)(F)F)c[nH]c2c1=O [CDK7_924, 6-(3,5-dimethyl-1,2-oxazol-4-yl)-3-(2-{[(3S)-piperidin-3-yl]amino}-5-(trifluoromethyl)pyrimidin-4-yl)-1H,6H,7H-pyrrolo[2,3-c]pyridin-7-one] | > 2 |
| – | < 0.005 | – | > 0.2 | – | 0.005 to 0.05 | 0.01 to 0.1 | 0.01 to 0.1 | – | 0.005 to 0.05 | < 1 | Cn1nnc(-c2cc(-c3nc(N[C@H]4CCCNC4)ncc3C(F)(F)F)c[nH]2)n1 [CDK7_1000, 4-[5-(2-methyl-2H-1,2,3,4-tetrazol-5-yl)-1H-pyrrol-3-yl]-N-[(3S)-piperidin-3-yl]-5-(trifluoromethyl)py-rimidin-2-amine] | 0.1 to 0.5 |
| – | < 0.005 | – | > 0.2 | – | 0.05 to 0.2 | 0.01 to 0.1 | 0.01 to 0.1 | A (Clint < 20 μl/(min · mg of protein)) | – | – | FC(F)(F)c1cnc(N[C@H]2CCCNC2)nc1-c1c[nH]c(-c2noc(C3CC3)n2)c1 [CDK7_1103] | 0.1 to 0.5 |
| – | < 0.005 | – | > 0.2 | – | 0.005 to 0.05 | < 0.01 | 0.01 to 0.1 | – | – | < 1 | O=c1c2[nH]cc(-c3nc(N[C@H]4CCCNC4)ncc3C(F)(F)F)c2ccn1C1CC1 [CDK7_1105, 6-cyclopropyl-3-(2-{[(3S)-piperidin-3-yl]amino}-5-(trifluoromethyl)py-rimidin-4-yl)-1H,6H,7H-pyrrolo[2,3-c]pyridin-7-one] | 0.1 to 0.5 |
